Patent US20200399262A1, “COMPOUNDS FOR INHIBITING PROTEIN DEGRADATION AND METHODS OF USE THEREOF IN THE TREATMENT OF CANCER” (PI Therapeutics Ltd, priority 2018, published 2020)

Legend:
proteasome = experiment: Proteasome activity (Proteasome-GLO) in intact MM1.S cells; assay type: cell-based; settings: 3 hr at 37° C.
Procedure: Proteasome activity was measured in intact MM1.S cells as cleavage of peptide substrates, specific for Trypsin like (TL), Chemotrypsin like (CTL) and Caspase like (PL) activities of the proteasome following treatment with Compound B1, Compound AA or Bortezomib (BTZ) at ˜EC50 concentrations for 3 hr at 37° C. BTZ was used as positive control.
Proteasome activity. The assay was performed only when cell viability is ≥90%. Cells were seeded in 96-well white clear bottom plates and treated with diluted compounds or vehicle control in triplicates for 3 hours at various concentrations. Catalytic activity was measured using three luminogenic proteasome substrates: Suc-LLVY-aminoluciferin (Succinyl-leucine-leucine-valine-tyrosine-aminoluciferin), Z-LRR-aminoluciferin (Z-leucine-arginine-arginine-aminoluciferin) and Z-nLPnLD-aminoluciferin (Z-norleucine-proline-norleucine-aspartate-aminoluciferin) for the chymotrypsin-like, trypsin-like and caspase-like activities, respectively (Proteasome-GLO, Promega). The emitted light was proportional to the proteasomal activity. Catalytic activity was calculated as the percent activity from control vehicle-treated cells.
MM1.S cells, were treated with Compound B1, Compound AA or Bortezomib (BTZ) at various concentrations for 3 hr at 37° C. […] Proteasome activity was measured by cleavage of proteasome-specific peptide substrates for TL, CTL and PL activities.

[1] = system: poly-ubiquitinated proteins; experiment: Western blot of poly-ubiquitinated proteins in MM1.S cells; assay type: cell-based; settings: SDS-PAGE immunoblot
Procedure: MM1.S cells were treated with Compound B1 (FIG. 1A), Compound AA (FIG. 1B) and Compound E1 (FIG. 1C) for indicated periods of time. Following treatment, the cells were harvested, and the lysates resolved on SDS-PAGE. Transferred membranes were blotted with antibodies as indicated. Actin was used as loading control.
Protein analysis by Western blot. At the end of treatment period, the cells were lysed with M-PER mammalian protein extraction reagent (ThermoFisher Scientific) supplemented with protease inhibitors. Equal protein amounts were resolved on pre-cast SDS-PAGE (ThermoFisher Scientific) and transferred to a PVDF membrane. The membrane was immunoblotted with antibodies as indicated. The following antibodies were used: Ub MAb (SC-8017, Santa-Cruz), ATF4, ATF6, phospho JNK, JNK (Cell signaling); eIF2alpha, phospho eIF2alpha (Novus).

MM1.S xenograft = experiment: MM1.S subcutaneous flank xenograft in athymic nude mice; assay type: in vivo; settings: for MM tumor growth compared to vehicle control / body weight % changes: TIW for 21 days; for Blood chemistry profiles (liver or kidney toxicity): TIW, treated mice
Description: FIG. 4A-4D depicts the growth inhibition of MM1.S xenograft in nude mice by Compound B1 (FIG. 4A, FIG. 4B) and Compound AA (FIG. 4C, FIG. 4D). FIG. 4A and FIG. 4C show tumor growth inhibition observed at end point measurements by Compound B1 and AA respectively. […] MM.1S cells (5×10^6 cells/mouse) were implanted in the rear flank of mail mice (6 weeks of age at the time of tumor implantation). On Day 20-23, mice were randomized for equivalent distribution of tumor volumes to treatment groups (n=5/group) and treated IV with vehicle, compound B1 (FIG. 4A) and compound AA (FIG. 4C), three time a week (TIW) for 21 days. Data are presented as mean tumor volume±SD. Body weight % changes in treated animals observed during the course of the study for compound B1 (FIG. 4B) and Compound AA (FIG. 4D).
(§1) Animal xenograft models. MM1.S, HCT-116, SW620 cell lines were purchased from ATCC and used for xenograft model. The cells were cultured in RPMI medium (Sigma-Aldrich) supplemented with 10% fetal bovine serum (FBS) and divided for up to 5 passages. Shortly prior to injection, cell suspension was mixed with Matrigel at 1:1 (V/V) and injected subcutaneously to the rear flank area of male nude athymic 6 weeks old mice to obtain administration of 5×10^6 cells/animal. On day 20-23, when tumor volume reached 100-150 mm^3, mice were randomized for equivalent distribution of tumor volumes to treatment groups (n=5/group) and treated via intravenous injection.

[2] = system: PBMCs from healthy donors; experiment: In-vitro safety in PBMCs from healthy donors (ATPlite viability); assay type: cell-based; settings: for therapeutic window, EC50 (PBMC)/EC50 (MM1.S) ratio: 5 healthy donor PBMC samples, viability 48 h later; for therapeutic window, EC50 (PBMC)/EC50 (MM1.S) ratio / cytotoxicity to PBMCs from healthy donors: 6 h treatment; for sensitivity of MM1.S cells versus PBMCs from healthy donors: 6 hr exposure, viability following 48 h of incubation; for cytotoxicity to PBMCs from healthy donors: viability 48 h later (ATPlight assay)
Procedure: FIG. 5 depicts the in-vitro safety of Compound B1 and Compound AA in Peripheral Blood Mononuclear Cells (PBMCs) from healthy donors respectively. MM1.S cells and normal PBMCs from healthy donors were treated with various concentrations of indicated compounds for 6 h and then analyzed 48 h later for cell viability (ATPlight assay). […] Calculated therapeutic windows: […], generated from 5 healthy donor PBMC samples, based on mean viability data.
PBMCs from healthy donors were exposed to Compound B1 and Compound AA for 6 hr and analyzed for viability by ATPight following 48 h of incubation. Results are representative of PBMCs from 5 healthy volunteers (FIG. 5). EC50 (PBMC)/EC50 (MM1.S) ratio, generated from 5 healthy donor PBMC samples, is shown for Compound B1, Compound AA and other UPS inhibitors [ixazomib, Bortezomib (BTZ) and CB5083].

HCT-116 xenograft = experiment: HCT-116 colorectal flank xenograft in nude mice; assay type: in vivo; settings: 8 mg/kg IV, TIW for 21 days
Description: as §1, with “FIG. 6A-6D show the evaluated in-vivo efficacy of Compound AA in a colorectal mouse flank xenograft models (HCT116, SW620). […] HCT-116 or SW620 cells (5×10^6 cells/mouse) were implanted in the rear flank of mail mice (6 weeks of age at the time of tumor implantation). On Day 20-23, mice were randomized for equivalent distribution of tumor volumes to treatment groups (n=5/group) and treated IV with vehicle, Compound AA (FIG. 6A, FIG. 6B) TIW for 21 days. Data are presented as mean tumor volume±SD. Body weight % changes in treated animals observed at end point (FIG. 6C, FIG. 6D). Animal” for “Animal”, “1:[…])” for “1:1 (V/V)”

MDA-MB-231 = experiment: NCI60 screen cytotoxicity; assay type: cell-based; settings: Homo sapiens, Breast cancer, read-out: Compound B1 EC50
HOP-62 = experiment: NCI60 screen cytotoxicity; assay type: cell-based; settings: Homo sapiens, Lung cancer, read-out: Compound B1 EC50
M14 = experiment: NCI60 screen cytotoxicity; assay type: cell-based; settings: Homo sapiens, Melanoma, read-out: Compound B1 EC50
NCI-H322M = experiment: NCI60 screen cytotoxicity; assay type: cell-based; settings: Homo sapiens, Lung cancer, read-out: Compound B1 EC50

| SMILES | inhibition of the enzymatic functions of the proteasome (TL, CTL and PL activities) (proteasome) | accumulation of poly-ubiquitinated proteins [1] | MM tumor growth compared to vehicle control (MM1.S xenograft; 4 mg/kg IV) | body weight % changes (MM1.S xenograft; 4 mg/kg IV) | Blood chemistry profiles (liver or kidney toxicity) (MM1.S xenograft; 4 mg/kg IV) | therapeutic window, EC50 (PBMC)/EC50 (MM1.S) ratio [2] | sensitivity of MM1.S cells versus PBMCs from healthy donors [2] | cytotoxicity to PBMCs from healthy donors [2] | Animal body weight (HCT-116 xenograft) | tumor growth compared to vehicle control (HCT-116 xenograft) | MM tumor growth compared to vehicle control (MM1.S xenograft; 5 mg/kg IV) | body weight % changes (MM1.S xenograft; 5 mg/kg IV) | Blood chemistry profiles (liver or kidney toxicity) (MM1.S xenograft; 5 mg/kg IV) | EC50 (MDA-MB-231) [nM] | EC50 (HOP-62) [nM] | EC50 (M14) [nM] | EC50 (NCI-H322M) [nM] |
| --- | --- | --- | --- | --- | --- | --- | --- | --- | --- | --- | --- | --- | --- | --- | --- | --- | --- |
| CN(C)CCCS(=O)(=O)N1C/C(=C\c2ccc(C#N)cc2)C(=O)/C(=C/c2ccc(C#N)cc2)C1 [Compound AA] | does not Inhibit | observable accumulation of poly-ubiquitinated proteins | significantly inhibited MM tumor growth | No significant weight loss | no clinical abnormalities suggestive of liver or kidney toxicity | larger Tx window than competing UPS inhibitors | more sensitive | less cytotoxic to PBMCs from healthy donors than Ixazomib, Bortezomib (BTZ) and CB5083 | not considerably affected | significantly inhibited tumor growth |  |  |  |  |  |  |  |
| CN(C)CC(=O)NCC(=O)N1C/C(=C\c2ccc(C#N)cc2)C(=O)/C(=C/c2ccc(C#N)cc2)C1 [Compound B1] | does not Inhibit | observable accumulation of poly-ubiquitinated proteins |  |  |  | larger Tx window than competing UPS inhibitors | more sensitive | less cytotoxic to PBMCs from healthy donors than Ixazomib, Bortezomib (BTZ) and CB5083 |  |  | significantly inhibited MM tumor growth | No significant weight loss | no clinical abnormalities suggestive of liver or kidney toxicity | < 300 | < 300 | < 300 | 300 to 1000 |
